What follows are compounds tested against SARS-CoV-2 M^pro (Severe acute respiratory syndrome coronavirus 2 (2019-nCoV) (SARS-CoV-2), UniProt P0DTD1) (assay: biochemical). Details: IC50; compounds evaluated at 0.015-300 μM.

| Compound | IC50 |
| --- | --- |
| COc1c(O)cc2oc(-c3ccc(O)c(O)c3)cc(=O)c2c1O [6-methoxyluteolin] | 4 µM |

Same assay, conditions: compound at 17 μM, duplicates, 20 min pre-incubation

| Compound | Activity (% enzyme activity by fluorescence relative to initial enzyme activity) |
| --- | --- |
| COc1cc2c(c3c1CC[C@@H](c1ccccc1)O3)[C@H]1c3c(cc(O)c(C)c3OC)O[C@](c3ccccc3)(O2)[C@@H]1O [Dracoflavan B1] | ++ (enzyme activity as indicated by fluorescence measurements ≥10% and <80%) |
| C=C(C)[C@H](CC=C(C)C)Cc1c(O)cc(O)c2c1O[C@H](c1ccc(O)cc1OC)CC2=O [Leachianone A] | + (≥80% enzyme activity as indicated by fluorescence measurements) |

Same assay, conditions: compound at 17 μM, duplicates, 20 min pre-incubation; read-out: Activity (% enzyme activity by fluorescence relative to initial enzyme activity)

| Compound | remaining activity at 17 µM |
| --- | --- |
| C=C(C)C(CC=C(C)C)Cc1c(O)cc(O)c2c(=O)c(O)c(-c3ccc(O)cc3)oc12 (centres unmarked) [8-Lavandulylkaempferol] | 10 to 80% |

Same assay, conditions: compounds evaluated at 0.015-300 μM; read-out: IC50

| Compound | IC50 |
| --- | --- |
| COc1cc2c(c3c1CC[C@@H](c1ccccc1)O3)[C@H]1c3c(cc(O)c(C)c3OC)O[C@](c3ccccc3)(O2)[C@@H]1O [Dracoflavan B1] | 17 µM |

Same assay, conditions: read-out: Activity (% enzyme activity by fluorescence relative to initial enzyme activity), compound at 17 μM, duplicates, 20 min pre-incubation

| Compound | remaining activity at 17 µM |
| --- | --- |
| CC(C)=CC1Oc2cc(O)ccc2-c2oc3c4c(cc(O)c3c(=O)c21)OC(C)(C)C=C4 (centres unmarked) [Cyclomorusin] | > 80% |
| CC(C)=CCc1c(O)ccc2c(=O)c(-c3ccc(O)cc3)coc12 [8-Prenyldaidzein] | > 80% |
| CC(C)=CCc1cc([C@@H]2CC(=O)c3c(O)cc(O)c(CC=C(C)C)c3O2)cc(CC=C(C)C)c1O [5-Hydroxysophoranone] | > 80% |
| COc1c(O)cc2oc(-c3ccc(O)c(O)c3)cc(=O)c2c1O [6-methoxyluteolin] | 10 to 80% |
| O=c1c(-c2ccc(O)cc2O)coc2cc(O)cc(O)c12 [2′-hydroxygenistein] | > 80% |
| CC(C)=CCc1c(O)c(CC=C(C)C)c2c(c1O)C(=O)C[C@@H](c1ccc(O)cc1)O2 [6,8-Diprenylnaringenin] | > 80% |
| COc1ccc(-c2oc3c(CC=C(C)C)c(O)cc(O)c3c(=O)c2O[C@@H]2O[C@@H](C)[C@H](O)[C@@H](OC(C)=O)[C@H]2O[C@@H]2O[C@H](CO)[C@@H](O)[C@H](O)[C@H]2O)cc1 [Sagittatoside C] | > 80% |
| C=C(C)[C@H](CC=C(C)C)Cc1c(O)cc(OC)c2c1O[C@H](c1ccc(O)cc1OC)CC2=O [2′-methoxykurarinone] | > 80% |
| C=C(C)C(O)Cc1c(O)c(CC=C(C)C)c2occ(-c3ccc(O)cc3)c(=O)c2c1O (centres unmarked) [Isoerysenegalensein E] | > 80% |
| COc1ccc(-c2oc3c(CC=C(C)C)c(O)cc(O)c3c(=O)c2O[C@@H]2O[C@@H](C)[C@H](O)[C@@H](O)[C@H]2O[C@@H]2O[C@H](CO)[C@@H](O)[C@H](O)[C@H]2O)cc1 [Sagittatoside A] | > 80% |
| COc1cc(-c2oc3cc(O)cc(O)c3c(=O)c2OC)cc(CC=C(C)C)c1O [Dodoviscin J] | > 80% |
| CC(C)=CCc1cc(-c2coc3cc(O)cc(O)c3c2=O)ccc1O [Isowighteone] | > 80% |
| CC(C)=CCC/C(C)=C/Cc1cc(C2CC(=O)c3c(O)cc(O)cc3O2)c(O)cc1O (centres unmarked) [kuwanon E] | 10 to 80% |
| CC(C)=CCc1c(O)c(CC=C(C)C)c2c(c1O)C(=O)[C@H](O)[C@@H](c1ccc(O)cc1O)O2 [Kushenol L] | > 80% |
| COc1ccc(-c2oc3c(CC=C(C)C)c(O[C@@H]4O[C@H](CO)[C@@H](O)[C@H](O)[C@H]4O)cc(O)c3c(=O)c2O[C@@H]2O[C@@H](C)[C@H](O)[C@@H](O[C@@H]3O[C@H](CO)[C@@H](O)[C@H](O)[C@H]3O)[C@H]2O)cc1 [Epimedin A1] | > 80% |
| CC(C)=CCc1c(O)ccc2c(=O)cc(-c3ccc(O)c(O)c3)oc12 [Corylifol C] | > 80% |
| COc1ccc(-c2coc3cc(O)c(CC=C(C)C)c(O)c3c2=O)c(O)c1 [Gancaonin N] | > 80% |
| CC(C)=CCc1cc(-c2coc3cc(O)c(CC=C(C)C)c(O)c3c2=O)cc(O)c1O [Imbricataflavone A] | > 80% |
| COc1cc2occ(-c3ccc(O)cc3)c(=O)c2c(O)c1CC=C(C)C [Gancaonin G] | > 80% |
| COc1ccc(-c2coc3c(CC=C(C)C)c(O)cc(O)c3c2=O)cc1 [Gancaonin M] | > 80% |
| COc1ccc([C@@H]2CC(=O)c3c(O)cc(O)cc3O2)cc1CC=C(C)C [4′-O-Methyllicoflavanone] | 10 to 80% |

From patent publication US20240016777A1, “COMPOUNDS AND METHODS FOR TREATING VIRAL INFECTIONS” (priority 2020, published 2024)
